# Literature values in US8142802B2, “Insecticidal composition with enhanced synergistic activity” (priority 2003, dated 2012).
# Details: at room temperature
compound,measurement,value
COP(=O)(NC(C)=O)SC (stereo not shown) [Acephate],solubility in acetone,> 100 mg/mL
same,solubility in aromatic solvents,< 50 mg/mL
same,solubility in ethanol,> 100 mg/mL
same,solubility in water,about 650 g/l
